Test results published in US20070213366A1, “Treatment of Synucleinopathies” (priority 2005, published 2007).
Entries after “also recorded” stand apart in the source; their conditions may differ.

Assays:
α-synuclein [1] = assay: Western blot of α-synuclein in SH-SY5Y cells infected with α-synuclein-expressing adenovirus; type: cell-based; settings: normalized against actin
Experimental: Western Blotting: Following transfer of SDS gels onto NC membrane, all membranes were blocked with 5% non-fat milk in TBST (50 mM Tris-HCl pH7.4, 150 mM NaCl, 0.1% Tween 20), and incubated with primary antibody overnight with 1% BSA in TBST, washed three times with TBST, and incubated with horseradish peroxidase-conjugated secondary antibody for 1 hour (Promega). Bound antibodies were detected using enhanced chemiluminascence (NEM).
Since α-synuclein neurotoxicity is dose-dependent, it follows that accumulation of α-synuclein, caused by UCH-L1 farnesylation, should promote its toxicity. […] These cells express high endogenous levels of UCH-L1. […] The unit of y-axis is 10^5/ml. (F) Cell viability was assessed by the amount of metabolic activity using MTT assay. […] The effect of FTI-277 on the α-synuclein accumulation in the SH-SY5Y infected with α-synuclein-expressing adenovirus were analyzed by Western blotting (B) and the amount of α-synuclein (C) was quantified using NIH Image program and normalized against the amount of actin.

[2] = test system: SH-SY5Y cells overexpressing α-synuclein; assay: Viability (Trypan blue, MTT) of SH-SY5Y cells infected by α-synuclein-expressing adenovirus; type: cell-based
Experimental: Viral Infection: Viral infection and MTT assay in SH-SY5Y cells: The viruses were amplified and purified according to the published procedure. SH-SY5Y cells were grown on 100 mm petri-dishes and induced with 100 nM retinoic acid for 3-5 days before the virus infection with M.I.O at 75. Viruses were diluted with DPBS to desired M.I.O. After four hours of incubation, 10 ml growth medium was added. On the second day, cells were splitted into 96-well plates and treated with compounds for next 48 hours. The growth medium in each well was replaced with growth medium with 5 ug/ml MTT. Medium was removed after three hours incubation, and 200 ul isopropyl (0.04N HCl) was added into each well. The signal was read at 570 nm.
Viable cell counting: At stated time poins, SH-SY5Y cells were trypsinized with 100 ul trypsin-EDTA for 1 minute and neutralized with 400 ul growth medium. Cell suspension was made up by mixing 0.2 ml of cells in growth medium, 0.3 ml of HBSS and 0.5 ml of 0.4% Trypan Blue solution. Viable cell numbers were counted by standard cell counting chamber.
Since α-synuclein neurotoxicity is dose-dependent, it follows that accumulation of α-synuclein, caused by UCH-L1 farnesylation, should promote its toxicity. […] These cells express high endogenous levels of UCH-L1. […] The unit of y-axis is 10^5/ml. (F) Cell viability was assessed by the amount of metabolic activity using MTT assay. […]

[3] = test system: primary dopaminergic cultures; assay: α-synuclein toxicity in primary dopaminergic cultures; type: cell-based
UCH-L1 [4] = assay: 2D electrophoresis and Western blot of membrane-bound and cytosolic UCH-L1 in SH-SY5Y cells; type: cell-based; settings: compared to DMSO
Experimental: Membrane fractionation: Cells were harvested by scraping and washed with PBS. Cell pellet was suspended in lysis buffer (50 mM Tris-HCl, 1 mM EDTA) supplemented with protease inhibitor cocktail (Sigma) and homogenized by passing through 26G needles 10 times. Suspension was clarified by spinning at 600 g for 5 minutes. Clarified suspension was ultracentrifuged at 100,000 g for 2 hours and separated into membrane and cytosol. Membrane fraction washed with washing buffer (50 mM Tris-HCl, 1 mM EDTA 1 M NaCl), and pelleted each time with bench-top centrifuge.
2D electrophoresis: For the isolation of total cellular protein, cultured SH-SY5Y cells maintained as described above were rinsed with ice-cold PBS. Cells were lysed in 1 ml dSDS buffer (50 mM Tris-HCl, pH 8.0 0.1% SDS) supplemented with protease inhibitor cocktail. Lysates were boiled for 3 min, and were treated with Dnase and Rnase as described. […]
Western Blotting: Following transfer of SDS gels onto NC membrane, all membranes were blocked with 5% non-fat milk in TBST (50 mM Tris-HCl pH7.4, 150 mM NaCl, 0.1% Tween 20), and incubated with primary antibody overnight with 1% BSA in TBST, washed three times with TBST, and incubated with horseradish peroxidase-conjugated secondary antibody for 1 hour (Promega). Bound antibodies were detected using enhanced chemiluminascence (NEM). […]

UCH-L1 [5] = assay: Total amount and turnover (pulse-chase) of UCH-L1 in SH-SY5Y cells; type: cell-based
α-synuclein [6] = assay: α-synuclein degradation/accumulation assay in COS-7 cells; type: cell-based
Text: Plasmids: C220S cDNA was generated by PCR site-specific mutagenesis. For the PCR, the 5′ primer is uchforw SEQ ID NO: 1 ([…]), and 3′ primer is uchc220s SEQ ID NO:2 (CTAAGA […]). Wt UCH-L1 served as the template. The PCR fragment was inserted into pcDNA vector. For S 18YC220S mutant, S18Y UCH-L1 served as the template in PCR. For the FLAG tagged UCH-L1, the 5′ primer is FLAGuchforw SEQ ID NO: 3 ([…] CGATGGAG), and the 3′ primer is uchrev SEQ ID NO: 4 ([…]). Wt UCH-L1 or C220S served as the template. PCR fragment was purified and inserted into pcDNA vector. For the FLAG tagged UCH-L3, the 5′ primer is L3HindIII SEQ ID NO: 5 (CTAAAGCTTATGGACTAC […]), the 3′primer is L3XhoISAA SEQ ID NO: 6 ([…]). For the UCH-L3 CKAA variant, the 5′ primer is L3 HindIII and the 3′ primer is L3XhoICKAA SEQ ID NO: 7 ([…]). α-synuclein degradation assay: Lipofectamine 2000 was used to transfect COS-7 cells according to the Invitrogen protocol. Transfected cells were cultured at 37° C. for 48 hours before being treated with 35 μM lactacystin or DMSO. After 24 hours of incubation, the cells were lysed with Tris buffer (50 mM Tris, 2% SDS, 0.1% NP-40), and subjected to SDS-PAGE, followed by quantitative Western blotting.
In order to isolate the latter possibility, a mutant form of UCH-L3 was constructed in which the UCH-L1 farnesylation sequence was added to the UCH-L3 C-terminus. […]

farnesylated UCH-L1 = assay: Quantitative Western blot of farnesylated UCH-L1 in cortex membrane fraction of α-synuclein transgenic mice; type: in vivo
Experimental: (§1) Farnesyl transferase inhibitors Zarnestra and OSI-754 were administered to mice of the α-synuclein transgenic line described in Masliah et al. (Masliah et al. “Dopaminergic loss and inclusion body formation in alphα-synuclein mice: implications for neurodegenerative disorders” Science 287(5456): 1265-69, 2000; incorporated herein by reference). Animals from this line have α-synuclein neuronal inclusions in the cortex, hippocampus, and the olfactory bulb (Masliah et al. “Dopaminergic loss and inclusion body formation in alphα-synuclein mice: implications for neurodegenerative disorders” Science 287(5456): 1265-69, 2000; incorporated herein by reference). Transgenic mice were orally administered either FTI in 20% cyclodextrin solution or the same volume of vehicle alone twice a day for 30 or 90 days. […]
(§2) Treatment with 35 mg/kg Zarnestra twice a day for 30 days decreased levels of α-synuclein protein in the cortex and the amount of farnesylated UCH-L1 in the cortex of transgenic mice. Total α-synuclein levels were analyzed by a sandwich ELISA assay similar to one previously described (El-Agnaf et al. “Detection of oligomeric forms of alphα-synuclein protein in human plasma as a potential biomarker for Parkinson's disease” FASEB J. 20(3):419-25, 2006; incorporated herein by reference). […] The amount of UCH-L1 was determined by quantitative Western Blot. […]

human α-synuclein = assay: Immunostaining of α-synuclein inclusions in cortex and hippocampus of α-synuclein transgenic mice; type: in vivo
Experimental: Farnesyl transferase inhibitors Zarnestra and OSI-754 were administered to mice of the α-synuclein transgenic line described in Masliah et al. (Masliah et al. “Dopaminergic loss and inclusion body formation in alphα-synuclein mice: implications for neurodegenerative disorders” Science 287(5456): 1265-69, 2000; incorporated herein by reference). Animals from this line have α-synuclein neuronal inclusions in the cortex, hippocampus, and the olfactory bulb (Masliah et al. “Dopaminergic loss and inclusion body formation in alphα-synuclein mice: implications for neurodegenerative disorders” Science 287(5456): 1265-69, 2000; incorporated herein by reference). Transgenic mice were orally administered either FTI in 20% cyclodextrin solution or the same volume of vehicle alone twice a day for 30 or 90 days. In some cases, non-transgenic mice also received vehicle twice a day for 30 to 90 days. At the end of treatment, mice were sacrificed, and the brains removed and hemisected. One hemisphere of each was fixed in 4% paraformaldehyde/PBS (pH 7.4), cryoperserved, then sectioned for histology. The other hemisphere was subdivided into four brain regions, including the cortex and hippocampus, that were homogenized and processed into cytoplasmic and membrane fractions.
Formation of α-synuclein inclusions in the cortex and hippocampus was probed by immunostaining with an antibody for full-length human α-synuclein. Cells positive for human α-synuclein were quantified. […] These regions were also analyzed for ubiquitin-immunoreactive inclusions and by the Campbell Switzer method of silver staining. Ubiquitin is known to be a constituent of Lewy Bodies and in the α-synculein inclusions found in the transgenic mouse line used in the study (Masliah et al. “Dopaminergic loss and inclusion body formation in alphα-synuclein mice: implications for neurodegenerative disorders” Science 287(5456): 1265-69, 2000; incorporated herein by reference). […] Campbell-Switzer staining is a general marker of Lewy Body type inclusions (Uchihara et al. “Silver stainings distinguish Lewy bodies and glial cytoplasmic inclusions: comparison between Gallyas-Braak and Campbell-Switzer methods” Acta Neuropathol. (Berl) 110(3):255-60, 2005; incorporated herein by reference).
Formation of α-synuclein inclusions in the cortex and hippocampus was probed by immunostaining with an antibody for full-length human α-synuclein. Cells positive for human α-synuclein were quantified.

α-synuclein [7] = assay: Sandwich ELISA of total α-synuclein in cortex fractions of α-synuclein transgenic mice; type: in vivo; settings: 45 mg/kg twice a day for 30 days, vs vehicle-treated transgenic mice
Experimental: as §1, §2

[8] = test system: Lewy body-like inclusions; assay: Campbell Switzer silver staining of Lewy body-like inclusions in α-synuclein transgenic mice; type: in vivo; settings: 35 mg/kg twice a day for 30 days, vs vehicle
Experimental: (§3) Farnesyl transferase inhibitors Zarnestra and OSI-754 were administered to mice of the α-synuclein transgenic line described in Masliah et al. (Masliah et al. “Dopaminergic loss and inclusion body formation in alphα-synuclein mice: implications for neurodegenerative disorders” Science 287(5456): 1265-69, 2000; incorporated herein by reference). Animals from this line have α-synuclein neuronal inclusions in the cortex, hippocampus, and the olfactory bulb (Masliah et al. “Dopaminergic loss and inclusion body formation in alphα-synuclein mice: implications for neurodegenerative disorders” Science 287(5456): 1265-69, 2000; incorporated herein by reference). Transgenic mice were orally administered either FTI in 20% cyclodextrin solution or the same volume of vehicle alone twice a day for 30 or 90 days. In some cases, non-transgenic mice also received vehicle twice a day for 30 to 90 days. At the end of treatment, mice were sacrificed, and the brains removed and hemisected. […]
(§4) Formation of α-synuclein inclusions in the cortex and hippocampus was probed by immunostaining with an antibody for full-length human α-synuclein. Cells positive for human α-synuclein were quantified. […] These regions were also analyzed for ubiquitin-immunoreactive inclusions and by the Campbell Switzer method of silver staining. […]

[9] = test system: ubiquitin-immunoreactive inclusions; assay: Ubiquitin immunohistochemistry in α-synuclein transgenic mice; type: in vivo; settings: 35 mg/kg twice a day for 30 days, vs vehicle
Experimental: as §3, §4

[10] = 9 mg/kg twice a day for 90 days, vs vehicle
[11] = 45 mg/kg twice a day for 90 days, vs vehicle
[12] = 35 mg/kg twice a day for 30 days, vs vehicle

## COC(=O)[C@H](CCSC)NC(=O)c1ccc(NC[C@@H](N)CS)cc1-c1ccccc1 [FTI-277]
α-synuclein [1]
  amount of α-synuclein: reducing the amount of α-synuclein accumulation; also recorded: reduced the amount of α-synuclein
[2]; SH-SY5Y cells overexpressing α-synuclein via adenovirus, compared to DMSO
  α-synuclein toxicity / loss of cells: inhibits synuclein toxicity; also recorded: rescued α-synuclein toxicity; also recorded: significantly decreased loss of cells
[2]; SH-SY5Y cells overexpressing α-synuclein, not shown
  neuroprotective effect of FTI-277 on co-administration of the small-molecule UCH-L1 inhibitor: eliminated
[3]
  α-synuclein toxicity: inhibit α-synuclein toxicity
UCH-L1 [4]
  amount of cytosolic UCH-L1: without affecting
  amount of membrane bound UCH-L1: significant decrease; also recorded: decreased the amount of the membrane-associated species; also recorded: reducing the amount of membrane-associated protein
UCH-L1 [5]
  total amount of UCH-L1: reduced the total amount of UCH-L1
UCH-L1 [5]; pulse-chase experiment not shown
  rate of turnover of UCH-L1: increased its rate of turnover
α-synuclein [6]; COS-7 cells
  synuclein level: lowers synuclein level

## C#Cc1cccc(-c2cc(=O)n(C)c3ccc(C(O)(c4ccc(Cl)cc4)c4cncn4C)cc23)c1 (stereo not shown) [OSI-754]
Farnesylated UCH-L1; 45 mg/kg twice a day for 30 days, normalized to actin
  amount of farnesylated UCH-L1 in the cortex: decreased the amount of farnesylated UCH-L1
Human α-synuclein; 9 mg/kg twice a day for 90 days
  inclusions vs vehicle: fewer inclusions
Human α-synuclein; [10]
  α-synuclein-positive cells per mm^2, cortex: fewer α-synuclein-positive cells
  α-synuclein-positive cells per mm^2, hippocampus: fewer α-synuclein-positive cells
Human α-synuclein; 45 mg/kg twice a day for 90 days
  inclusions vs vehicle: fewer inclusions
Human α-synuclein; [11]
  α-synuclein-positive cells per mm^2, cortex: fewer α-synuclein-positive cells
  α-synuclein-positive cells per mm^2, hippocampus: fewer α-synuclein-positive cells
α-synuclein [7]
  α-synuclein protein levels, cortex cytoplasmic fraction: lower α-synuclein protein levels
  α-synuclein protein levels, cortex membrane fraction: lower α-synuclein protein levels

## Cn1cncc1[C@@](N)(c1ccc(Cl)cc1)c1ccc2c(c1)c(-c1cccc(Cl)c1)cc(=O)n2C [Zarnestra]
Farnesylated UCH-L1; 35 mg/kg twice a day for 30 days, membrane fraction
  amount of farnesylated UCH-L1 in the cortex: decreased the amount of farnesylated UCH-L1 in transgenic mice to levels similar to non-transgenic mice
[8]
  Campbell-Switzer stained inclusions: fewer inclusions
[9]
  ubiquitin-immunoreactive inclusions: fewer ubiquitin-immuoreactive inclusions
Human α-synuclein; [12]
  α-synuclein-positive cells per mm, cortex: significantly fewer
  α-synuclein-positive cells per mm, hippocampus: significantly fewer
Human α-synuclein; transgenic mice, 35 mg/kg orally twice a day for 30 days
  inclusions vs vehicle: fewer inclusions

## CC(=O)N[C@@H](CSC(=O)[C@]1([C@@H](O)C(C)C)NC(=O)[C@H](C)[C@@H]1O)C(=O)O [lactacystin]
α-synuclein [6]; transfected COS-7 cells, 16 kDa α-synuclein normalized against actin, sets the scale
  accumulation of α-synuclein: 100%
